Type in all cases: biochemical
In assay [1] the target is T1, RET wt (Homo sapiens, UniProt P07949).
T1 construct: purchased Carna 08-159
The experiment in a line: In vitro kinase activity assay (mobility shift assay), RET wild type. To be noted: ATP 16 μM, reaction time 60 min. As for the experimental part: (§1) The IC50 (half inhibitory concentration) values of the compounds were used as an indicator to evaluate the inhibitory effect of the compound on RET wild-type, RET mutant, TRKa, SRC, BTK and/or mutated BTK kinase.
(§2) Using the method of Mobility shift assay, the compounds were tested for inhibitory activity against the following kinases: RET wild type, RET mutant, TRKa, SRC, BTK and/or mutated BTK. The initial concentration of the test compound was 1000 nM, 3-fold dilution, 10 concentrations, detected in a well for each concentration.
(§3) 20 mM hydroxyethylpiperazineethanesulfonic acid (Hepes) (pH 7.5) buffer, 10 mM MgCl2, 1 mM ethylene glycol bis(aminoethyl ether)tetraacetic acid (EGTA), 0.02% polyoxyethylene lauryl ether (Brij35), 0.02 mg/ml […] (BSA), 0.1 mM Na3VO4, 2 mM dithiothreitol (DTT), 1% DMSO.
(§4) The test compounds were dissolved in 100% dimethyl sulfoxide (DMSO) system, and prepared as 10 mM for use, and stored in a nitrogen cabinet away from light.
(§5) • (1) Preparing 1× kinase reaction buffer. • (2) Preparation of compound concentration gradient: the initial concentration of the compounds was 1000 nM, which was diluted as 100-fold final concentration of solution in 100% dimethyl sulfoxide (DMSO) in a 384-well plate. The compound was accurately 3-fold diluted with the kinase buffer solution, 10 concentrations in total, and the final concentration was 0.0508 nM. The 100-fold final concentration of solution in 100% dimethyl sulfoxide (DMSO) was obtained by dilution in 384 source plate. The liquid separator Echo 550 was used to transfer 250 nl of 100-fold final concentration of compound to the target 384 well plate. 250 nl of DMSO was added to the positive and negative control wells. • (3) 2.5-fold final concentration of kinase solution was prepared by the 1× kinase buffer. • (4) 10 4, of 2.5-fold final concentration of kinase solution was added to the compound well and the positive control well, respectively; 10 4, of 1× kinase buffer was added to the negative control well. • (5) After centrifuging at 1000 rpm for 30 second, the reaction plate was shaken and mixed, followed by incubation at room temperature for 10 min. • (6) a mixed solution of 25/15-fold final concentration of adenosine triphosphate (ATP) and kinase substrate was prepared by 1× kinase buffer. • (7) The mixed solution (15 μL) of 25/15-fold final concentration of adenosine triphosphate (ATP) and substrate was added to initiate the reaction. • (8) 384-well plate was centrifuged at 1000 rpm for 30 second, shaken and mixed well, and then incubated at room temperature for 30-240 min. • (9) After stopping the kinase reaction, the plate was centrifugated at 1000 rpm for 30 second, shaken and mixed well. • (10)The conversion rate was read with Caliper EZ Reader.
(§6) wherein Conversion%_sample is the conversion rate reading of the sample; Conversion%_min: the mean value of negative control wells, representing the conversion rate reading of wells without enzymes; Conversion%_max: the mean value of positive control wells, representing the conversion rate reading of wells without compound inhibition.
(§7) The log value of concentration was taken as the X axis, and the percentage inhibition rate was taken as the Y axis. Graphpad 6.0 analysis software was used to fit the dose-response curve, so as to obtain the IC50 value of each compound on the enzyme activity

Assay [2] concerns the target T2, RET G810R (Homo sapiens, UniProt P07949, G810R).
T2 construct: purchased Proqinase 1724-0000-1
The experiment in a line: In vitro kinase activity assay (mobility shift assay), RET G810R. To be noted: ATP 201 μM, reaction time 4 h. As to the method: as §1, §2, §3, §4, §5, §6, §7

Assay [3] addresses T3, RET V804M (Homo sapiens, UniProt P07949, V804M).
T3 construct: purchased signalchem R02-12GG
The experiment in a line: In vitro kinase activity assay (mobility shift assay), RET V804M. To be noted: ATP 5.4 μM, reaction time 60 min. As to the method:
as §1, §2, §3, §4, §5, §6, §7

Molecules are shown by their SMILES. pIC50: −log10 of the molar value.

T1 sequence (P07949 29-1114): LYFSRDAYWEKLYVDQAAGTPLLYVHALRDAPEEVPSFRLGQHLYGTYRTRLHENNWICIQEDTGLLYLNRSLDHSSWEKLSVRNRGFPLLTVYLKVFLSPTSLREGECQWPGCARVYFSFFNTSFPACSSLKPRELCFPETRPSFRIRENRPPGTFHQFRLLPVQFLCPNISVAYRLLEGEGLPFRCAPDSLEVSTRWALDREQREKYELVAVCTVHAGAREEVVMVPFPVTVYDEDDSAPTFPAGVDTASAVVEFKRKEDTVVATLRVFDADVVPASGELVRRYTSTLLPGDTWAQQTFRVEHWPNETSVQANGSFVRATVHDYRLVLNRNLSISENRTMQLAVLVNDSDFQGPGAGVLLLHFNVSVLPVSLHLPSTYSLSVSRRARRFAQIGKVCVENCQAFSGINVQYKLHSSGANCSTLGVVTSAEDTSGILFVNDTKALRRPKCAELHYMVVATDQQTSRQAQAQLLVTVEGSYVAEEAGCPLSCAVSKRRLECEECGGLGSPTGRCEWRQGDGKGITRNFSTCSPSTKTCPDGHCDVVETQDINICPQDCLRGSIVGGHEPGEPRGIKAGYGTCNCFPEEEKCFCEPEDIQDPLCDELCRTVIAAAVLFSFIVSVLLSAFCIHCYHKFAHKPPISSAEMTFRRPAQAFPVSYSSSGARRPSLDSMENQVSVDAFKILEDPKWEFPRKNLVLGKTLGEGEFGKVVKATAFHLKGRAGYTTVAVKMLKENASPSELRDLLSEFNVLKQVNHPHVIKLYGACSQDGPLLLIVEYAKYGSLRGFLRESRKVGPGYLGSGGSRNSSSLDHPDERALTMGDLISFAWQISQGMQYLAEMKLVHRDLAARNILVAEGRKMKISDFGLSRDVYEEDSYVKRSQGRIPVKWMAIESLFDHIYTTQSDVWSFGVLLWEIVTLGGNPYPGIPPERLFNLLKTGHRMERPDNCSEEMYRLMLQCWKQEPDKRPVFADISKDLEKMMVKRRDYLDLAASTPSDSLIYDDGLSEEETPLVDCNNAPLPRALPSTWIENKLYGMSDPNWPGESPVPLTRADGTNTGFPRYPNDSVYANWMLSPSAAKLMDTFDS
T3 sequence (P07949 29-1114 V804M): as the sequence (P07949 29-1114) above, with V776M counted along it
T2 sequence (P07949 29-1114 G810R): as the sequence (P07949 29-1114) above, with G782R counted along it

Usually pIC50 stands for −log10 of the IC50, conventionally taken in molar units. On to `CNC(=O)Nc1ccc(-c2cn3ncc4c3nc2NCc2cc(F)cnc2O[C@@H](C)CNC4=O)cc1` [Compound 32, 1-(4-((S, 1^3E, 1^4E)-4^5-fluoro-6-methyl-9-oxo-5-oxa-2,8-diaza-1(5,3)-pyrazolo[1,5-a]pyrimidin-4(3,2)-pyridinacyclononaphan-1^6-yl)phenyl)-3-methylurea], for which the negative logarithm of the IC50 (pIC50) in assay [1] was 7.85; in assay [2] it was 7.01; in assay [3] it was 7.23.
Consider `C[C@H]1CNC(=O)c2cnn3cc(-c4ccc5[nH]ccc5c4Cl)c(nc23)NCc2cc(F)cnc2O1` [Compound 34, (S, 1^3E, 1^4E)-1^6-(4-chloro-1H-indo1-5-yl)-4^5-fluoro-6-methyl-5-oxo-2,8-diaza-1(5,3)-pyrazolo[1,5-a]pyrimidin-4(3,2)-pyridinacyclononaphan-9-one], for which the pIC50 is 8.27 in assay [1] and 6.42 in assay [2].
The like results for `CNC(=O)Nc1ccc(-c2cn3ncc4c3nc2NCc2cc(F)cnc2O[C@@H](C)CNC4=O)c(Cl)c1` [Compound 35, 1-(3-chloro-4-((S, 1^3E, 1^4E)-4^5-fluoro-6-methyl-9-oxo-5-oxo-2,8-diaza-1(5,3)-pyrazolo[1,5-a]pyrimidin-4(3,2)-pyridinacyclononaphan-1^6-yl)phenyl)-3-methylurea] were, in that order, 8.72 and 6.71.
For `C[C@H]1CNC(=O)c2cnn3cc(-c4ccc(N)cc4)c(nc23)NCc2cc(F)cnc2O1` [Compound 36, (S, 1^3E, 1^4E)-1^6-(4-aminophenyl)-4^5-fluoro-6-methyl-5-oxo-2,8-diaza-1(5,3)-pyrazolo[1,5-a]pyrimidin-4(3,2)-pyridinacyclononaphan-9-one], in that order: 7.57 and below 6.00.
Regarding `C[C@H]1CNC(=O)c2cnn3cc(-c4cn[nH]c4)c(nc23)NCc2cc(F)cnc2O1` [Compound 37, (S, 1^3E, 1^4E)-4^5-fluoro-6-methyl-1^6-(1H-pyrazol-4-yl)-5-oxa-2,8-diaza-1(5,3)-pyrazolo[1,5-a]pyrimidin-4(3,2)-pyridinacyclononaphan-9-one], the results for the pIC50 in assay [1] and in assay [2] were 7.02 and below 6.00, respectively.
For `CNc1ccc(-c2cn3ncc4c3nc2NCc2cc(F)cnc2O[C@@H](C)CNC4=O)c(Cl)c1` [Compound 39, (S, 1^3E, 1^4E)-1^6-(4-methylamino-2-chlorophenyl)-4^5-fluoro-6-methyl-5-oxa-2,8-diaza-1(5,3)-pyrazolo[1,5-a]pyrimidina-4(3,2)-pyridinacyclononaphan-9-one], in that order: 8.52 and 6.43.
Take `C[C@H]1CNC(=O)c2cnn3cc(-c4ccc(Nc5ncco5)cc4)c(nc23)NCc2cc(F)cnc2O1` [Compound 42, (S, 1^3E, 1^4E)-4^5-fluoro-6-methyl-1^6-(4-(oxazol-2-amino)phenyl)-5-oxa-2,8-diaza-1(5,3)-pyrazolo[1,5-a] pyrimidin-4(3,2)-pyridinacyclononaphan-9-one]: the pIC50 in assay [1], in assay [2] and in assay [3] was below 6.00 each time.
As to `C[C@H]1CNC(=O)c2cnn3cc(-c4ccc(NS(C)(=O)=O)cc4Cl)c(nc23)NCc2cc(F)cnc2O1` [Compound 44], the pIC50 is 6.54 in assay [1] and below 6.00 in assay [2].
Regarding `C[C@H]1CNC(=O)c2cnn3cc(-c4ccc(NC(=O)OCC5CC5)cc4Cl)c(nc23)NCc2cc(F)cnc2O1` [Compound 46, cyclopropylmethyl (3-chloro-4-((S, 1^3E, 1^4E)-4^5-fluoro-6-methyl-9-oxo-5-oxadiaza-2,8-1(5,3)-pyrazolo[1,5-a]pyrimidin-4(3,2)-pyridinacyclononaphan-1^6-yl)phenyl)carbamate], the pIC50 in assay [1] is 8.29; in assay [2], 7.01.
Take `C[C@H]1CNC(=O)c2cnn3cc(-c4ccccc4)c(nc23)NCc2cc(Cl)cnc2O1` [Compound 47, (S, 1^3E, 1^4E)-4^5-chloro-6-methyl-1^6-phenyl-5-oxa-2,8-diaza-1(5,3)-pyrazolo[1,5-a]pyrimidina-4(3,2)-pyridinacyclononaphan-9-one]: the pIC50 in assay [1] is 7.59; in assay [2] it was below 6.00; in assay [3], below 6.00.
In the case of `C[C@H]1CNC(=O)c2cnn3cc(-c4ccccc4)c(nc23)NCc2cc(Nc3ccccn3)cnc2O1` [Compound 48, (S, 1^3E, 1^4E)-6-methyl-1^6-phenyl-4^5-(pyridin-2-ylamino)-5-oxa-2,8-diaza-1(5,3)-pyrazolo[1,5-a]pyrimidina-4(3,2)-pyridinacyclononaphan-9-one], the pIC50 in assay [1], in assay [2] and in assay [3] was below 6.00 throughout.
As for `C[C@H]1CNC(=O)c2cnn3c(N)c(-c4ccc5nc[nH]c5c4)c(nc23)NCc2cc(F)cnc2O1` [Compound 52, (S, 1^3E, 1^4E)-1^7-amino-1 ^6-(1H-benzo [d]imidazol-6-yl)-4^5-fluoro-6-methyl-5-oxo-2,8-diaza-1(5,3)-pyrazolo[1,5-a]pyrimidin-4(3,2)-pyridinacyclononaphan-9-one], the figures for the pIC50 in assay [1] and in assay [2] were 8.27 and 6.23, respectively.
For `CNC(=O)Nc1ccc(-c2c3nc4c(cnn4c2N)C(=O)NC[C@H](C)Oc2ncc(F)cc2CN3)cc1` [Example 55, 1-(4-((S, 1^3E, 1^4E)-1^7-amino-4^5-fluoro-6-methyl-9-oxo-5-oxo-2,8-diaza-1(5,3)-pyrazolo[1,5-a]pyrimidin-4(3,2)-pyridinacyclononaphan-1^6-yl)phenyl)-3-methylurea], in that order: 8.96 and 7.07.
For `CC(C)Nc1ccc(-c2c3nc4c(cnn4c2N)C(=O)NC[C@H](C)Oc2ncc(F)cc2CN3)cc1` [Example 57, (S, 1^3E, 1^4E)-1^7-amino-4^5-fluoro-1^6-(4-(isopropylamino)phenyl)-6-methyl-5-oxo-2,8-diaza-1(5,3)-pyrazolo[1,5-a]pyrimidin-4(3,2)-pyridinacyclononaphan-9-one], in that order: 7.33 and below 6.00.
The like results for `C[C@H]1CNC(=O)c2cnn3c(N)c(-c4ccc(N(C)C)cc4)c(nc23)NCc2cc(F)cnc2O1` [Example 58, (S, 1^3E, 1^4E)-1^7-amino-1^6-(4-(dimethylamino)phenyl)-4^5-fluoro-6-methyl-5-oxo-2,8-diaza-1(5,3)-pyrazolo[1,5-a]pyrimidin-4(3,2)-pyridinacyclononaphan-9-one] were, in that order, 8.47 and 6.81.
Regarding `COc1ccc(-c2c3nc4c(cnn4c2N)C(=O)NC[C@H](C)Oc2ncc(F)cc2CN3)cc1` [Example 59, (S, 1^3E, 1^4E)-1^7-amino-4^5-fluoro-1^6-(4-methoxyphenyl)-6-methyl-5-oxo-2,8-diaza-1(5,3)-pyrazolo[1,5-a]pyrimidin-4(3,2)-pyridinacyclononaphan-9-one], the negative logarithm of the IC50 (pIC50) is 8.62 in assay [1], 6.89 in assay [2] and 7.42 in assay [3].
For the compound `CC(C)OC(=O)Nc1ccc(-c2c3nc4c(cnn4c2N)C(=O)NC[C@H](C)Oc2ncc(F)cc2CN3)cc1` [Example 61, iso-propyl (4-((S, 1^3E, 1^4E)-1^7-amino-4^5-fluoro-6-methyl-9-oxo-5-oxa-2,8-diaza-1(5,3)-pyrazolino[1,5-a]pyrimidin-4(3,2)-pyridinacyclononaphan-1^6-yl)-phenyl)carbamate], the negative-log IC50 (pIC50) in assay [1] is 9.00; in assay [2], 7.66.

The record behind these values is patent US20230219978A1, “COMPOUND HAVING MACROCYCLIC STRUCTURE AND USE THEREOF” (SCINNOHUB PHARMACEUTICAL CO., LTD, priority 2020, published 2023).
